Reference: PMC8400480, “Synthesis, Antibacterial and Pharmacokinetic Evaluation of Novel Derivatives of Harmine N^9-Cinnamic Acid” (Molecules, 2021)
Converted amounts (≈) assume the structure as drawn. Read-outs that look alike come from different tables or passages of the source.

How the values were obtained:
[1] = system: Escherichia coli CICC 10389 (E. coli); test: MIC, microplate dilution method; format: cell-based; settings: read-out: MIC E. coli
From the text: (§1) According to microplate dilution method, all the prepared compounds were screened for their in vitro antibacterial activity. The investigation included three representative Gram-positive strains, including Staphylococcus aureus CICC 10384 (S. aureus), Staphylococcus albus CICC 20237 (S. albus) and methicillinresistant Staphylococcus aureus ATCC 43300 (MRSA), and two representative Gram-negative strains, including Escherichia coli CICC 10389 (E. coli) and Pseudomonas aeruginosa CVCC 3359 (PA). Harmine and cinnamic acid were used as reference drugs.
(§2) The antibacterial efficiency of all prepared compounds was determined using the microplate dilution method. All compounds were prepared into different concentrations of stock solution according to their solubility. The compounds were added to the 96 well plate and serially diluted in Mueller-Hinton broth. Three Gram-positive strains (S. aureus, S. albus and MRSA) and two Gram-negative strains (E. coli and PA) were cultivated and added to the 96 well plate. The initial concentration of bacteria should be higher than 10^5 CFU/mL. The samples were incubated at 37 °C for 18–24 h. The MIC was determined for compounds by observing change of clarity in the broth. The same procedure was repeated in triplicate.

[2] = system: Pseudomonas aeruginosa CVCC 3359 (PA); test: MIC, microplate dilution method; format: cell-based; settings: read-out: MIC PA
From the text: as §1, §2

[3] = system: Staphylococcus albus CICC 20237 (S. albus); test: MIC, microplate dilution method; format: cell-based; settings: read-out: MIC S. albus
From the text: as §1, §2

[4] = system: Staphylococcus aureus CICC 10384 (S. aureus); test: MIC, microplate dilution method; format: cell-based; settings: read-out: MIC S. aureus
From the text: as §1, §2

[5] = system: methicillinresistant Staphylococcus aureus ATCC 43300 (MRSA); test: MIC, microplate dilution method; format: cell-based; settings: read-out: MIC MRSA
From the text: as §1, §2

S. aureus (CICC 10384) = test: Bactericidal time-kill kinetics; format: cell-based, Staphylococcus aureus
Procedure: The bacteria S. aureus was prepared in Muellere Hinton broth at 37 °C for 6 h with shaking. The solution of 3c (1 × MIC and 6 × MIC), 5a (1 × MIC and 6 × MIC), harmine (1 × MIC and 6 × MIC) and saline (served as a control group) were separately added to the bacterial suspension so that the final bacterial concentration were 10^6~10^7 CFU/mL. At the predetermined time point (0, 0.5, 2, 4, 6, 12 and 24 h), […] of aliquots were serially diluted in normal saline, plated on sterile Muellere Hinton agar plates, and incubated at 37 °C for 24 h. After incubation, the viable colonies were counted and represented as log10 (CFU/mL). The same procedure was repeated in triplicate.
Figure 3 Time-kill kinetics of compound 3c (A) and 5a (B) at 1 × and 6 × MIC against S. aureus (CICC 10384).

[6] = system: HepG2 (human liver carcinoma cells); test: In vitro cytotoxic activity, MTT assay; format: cell-based; settings: read-out: IC50 HepG2
Procedure: (§3) In vitro cytotoxic activity of 3c was evaluated using MTT (3-(4,5)-dimethylthi ahiazo (-2)-3,5-diphenytetrazoliiumromide) assay using WI-38 (Human embryonic lung fibroblasts), MCF-7 (human breast cancer cells) and HepG2 (human liver carcinoma cells). Harmine was used as a control.
(§4) The in vitro cytotoxicity of 3c was determined using MTT assay. WI-38 (Human embryonic lung fibroblasts), MCF-7 (Human breast cancer cells) and HepG2 (human liver carcinoma cells) were purchased from American Type Culture Collection (Manassas, VA, USA). The cells were maintained using Dulbecco’s modified eagle’s medium (DMEM, Sangon Biotech, Shanghai, China) supplemented with 10% fetal bovine serum (FBS, Sijiqing Bioengineering Material Co., Ltd., Hangzhou, China), 100 U/mL penicillin and 100 μg/mL streptomycin in a humidified 37 °C incubator under 5% CO2. 100 μL culture medium at a concentration of 1 × 10^4 cells/mL was added to 96-well plate and incubated in a humidified 37 °C incubator under 5% CO2. After 24 h, 10 µL solution of 3c and harmine dissolved in DMSO and PBS and then diluted with DMEM under a concentration gradient, which was added in the wells for final concentrations of 1000, 500, 250, 125, 62.5 µmol/L of compounds in WI-38 and 160, 80, 40, 20, 10 µmol/L of compounds in MCF-7 and Hep-G2. After 48 h incubation, 10 μL MTT solution (5 mg/mL) was added into each well and incubated in a humidified 37 °C incubator under 5% CO2. After 4 h, the supernatant was removed and 150 μL DMSO was added. The absorbance of each well was determined by an enzyme-linked immunosorbent assay reader (Thermo Fisher Scientific Inc., Rochester, NY, USA) at wavelengths of 570 nm. The experiments were performed in triplicate.

[7] = system: MCF-7 (human breast cancer cells); test: In vitro cytotoxic activity, MTT assay; format: cell-based; settings: read-out: IC50 MCF-7
Procedure: as §3, §4

[8] = system: WI-38 (Human embryonic lung fibroblasts); test: In vitro cytotoxic activity, MTT assay; format: cell-based; settings: read-out: IC50 WI-38
Procedure: as §3, §4

[9] = In vivo pharmacokinetic study in rats; settings: both sexes, Sprague-Dawley, plasma, rat
Procedure: Adult males and females Sprague Dawley rats, with average weight of 200–250 g, were purchased from the Experiment Animal Center of Lanzhou University (Lanzhou, China). The rats were housed under an environmentally controlled room for one week before staring the experiment. All procedures were performed according to the guidelines issued by the Ethical Committee of Lanzhou University (Permit Number: SYXK(Gan)-2018-0002).
After 7 days acclimatization, rats were randomly divided into two groups with half male and half female in each group (n = 6). All animals were fasted for 12 h with access to water prior to dosing. One group was intravenously administered with 3c at dose of 10 mg/kg. Another group was oral administered with 3c at dose of 40 mg/kg. Approximately 0.3 mL of blood samples were collected into heparinized tubes from the orbital vein at 0.083, 0.25, 0.5, 0.75, 1, 2, 4, 8, 12 and 24 h after the administration. The heparinized blood samples were immediately centrifuged at 4000 rpm for 10 min and the upper plasma was separated and immediately stored at −20 °C used for UPLC-MS/MS analysis.
Plasma samples were processed as follows. First, 100 μL of plasma samples and 50 μL of tinidazole (1000 ng/mL, internal standard) were mixed by vortex for 1 min. Next, 250 μL of acetonitrile were added to the mixture and vortexed for 10 min. After centrifugation at 10,000 rpm for 10 min, 200 μL of the upper organic layer were removed into 1.5 mL centrifuge tube and dried with nitrogen. Finally, the residue was reconstituted in 100 μL of 50% acetonitrile, vortexed for 1 min, centrifuged at 10,000 rpm for 10 min, and then the supernatant was used for UPLC-MS/MS analysis.
The obtained data were analyzed using a non-compartment open model with PKsolver Software. Pharmacokinetic parameters and the experiment data were expressed as the mean ± standard deviation (SD). A paired student’s t-test was used for statistical analysis, with p < 0.05 considered the minimum level of significance.

[10] = Gram-negative, Mueller-Hinton broth, 37 °C, 18–24 h
[11] = Gram-positive, Mueller-Hinton broth, 37 °C, 18–24 h
[12] = iv, i.v. 10 mg/kg, single dose, n = 6, Mean ± SD
[13] = po, i.g. 40 mg/kg, single dose, n = 6, Mean ± SD

Structure (SMILES): COc1ccc(/C=C/C(=O)OCCCCCn2c3cc(OC)ccc3c3ccnc(C)c32)cc1 [Compound 5a, 5-(7-Methoxy-1-methyl-9H-pyridine [3,4-b]indole-9-yl) amyl (E)-3-(4-methoxyphenyl) acrylate]
- MIC [1, 10]: 250 µg/mL (≈ 545 µM)
- MIC [2, 10]: 125 µg/mL (≈ 273 µM)
- MIC [3, 11]: 15.6 µg/mL (≈ 34.1 µM)
- MIC [4, 11]: 15.6 µg/mL (≈ 34.1 µM)
- MIC [5, 11]: 62.5 µg/mL (≈ 136 µM)
- time to 4-log10 reduction (S. aureus (CICC 10384); 1 × MIC): about 24 h
- time to completely kill the bacteria (S. aureus (CICC 10384); 6 × MIC): ≤ 12 h
- melting point: 91.1 to 92.3 °C

Structure (SMILES): COc1ccc2c3ccnc(C)c3n(CCCOC(=O)/C=C/c3ccccc3[N+](=O)[O-])c2c1 [Compound 3c, 4-(7-Methoxy-1-methyl-9H-pyridine [3,4-b]indole-9-yl) propyl(E)-3-(2-nitrophenyl) acrylate]
- MIC [1, 10]: 219 µg/mL (≈ 491 µM)
- MIC [2, 10]: 219 µg/mL (≈ 491 µM)
- MIC [3, 11]: 13.7 µg/mL (≈ 30.7 µM)
- MIC [4, 11]: 13.7 µg/mL (≈ 30.7 µM)
- MIC [5, 11]: 54.7 µg/mL (≈ 123 µM)
- time to 4-log10 reduction (S. aureus (CICC 10384); 1 × MIC): about 4 h
- time to completely kill the bacteria (S. aureus (CICC 10384); 6 × MIC): ≤ 0.5 h
- IC50 ([6]; HepG2, MTT, 48 h incubation, n = 3, Mean ± SD): 161.7 ± 1.31 µM
- IC50 ([7]; MCF7, MTT, 48 h incubation, n = 3, Mean ± SD): 94.9 ± 3.64 µM
- IC50 ([8]; WI-38, MTT, 48 h incubation, n = 3, Mean ± SD): 340.3 ± 2.79 µM
- AUC(0-inf) [9, 12]: 1050 ± 231 ng·h/mL
- AUC(0-t) [9, 12]: 1050 ± 229 ng·h/mL
- Cmax [9, 12]: 837 ± 229 ng/mL
- MRT [9, 12]: 2.86 ± 0.71 h
- Tmax [9, 12]: 0.083 ± 0.03 h
- half-life [9, 12]: 2.27 ± 0.62 h
- bioavailability ([9]; oral, i.g. 40 mg/kg vs i.v. 10 mg/kg, from AUC0→∞): 6.9%
- AUC(0-inf) [9, 13]: 290 ± 55.2 ng·h/mL
- AUC(0-t) [9, 13]: 284 ± 54.4 ng·h/mL
- CL/F [9, 13]: 4.33 mL/min/kg
- Cmax [9, 13]: 159 ± 59.6 ng/mL
- MRT [9, 13]: 3.33 ± 0.83 h
- Tmax [9, 13]: 0.25 ± 0.033 h
- half-life [9, 13]: 1.3 ± 0.47 h
- melting point: 128.6 to 129.3 °C

Structure (SMILES): COc1ccc2c(c1)[nH]c1c(C)nccc12 [Harmine, 7-methoxy-1-methyl-9H-pyridine [3,4-b] indole]
- MIC [1]: 15.6 µg/mL (≈ 73.6 µM)
- MIC [2]: 15.6 µg/mL (≈ 73.6 µM)
- MIC [3]: 15.6 µg/mL (≈ 73.6 µM)
- MIC [4]: 31.2 µg/mL (≈ 147 µM)
- MIC [5]: 62.5 µg/mL (≈ 294 µM)
- time-kill effect in words (S. aureus (CICC 10384); 1 × MIC): just slowed bacterial propagation
- time to 4-log10 reduction (S. aureus (CICC 10384); 6 × MIC): about 24 h
- IC50 ([6]; HepG2, 48 h): 67.6 ± 1.6 µM
- IC50 ([7]; MCF7, 48 h): 78.9 ± 2.82 µM
- IC50 ([8]; WI-38, 48 h): 103.4 ± 0.96 µM
